According to patent US20060276385A1, “Anti-inflammatory agents and methods of their use” (priority 2003, published 2006):

Columns and labels:
NF-κB = NF-κB assay with NF-κB-SEAP reporter construct; type: cell-based; details: NF-κB-SEAP co-transfected with BMP4 vector vs empty vector
Protocol: NF-κB assay: NF-κB activity was determined by using a NF-κB reporter construct, NF-κB-SEAP vector (lug, Clontech) expressing a secreted form of placental alkaline phosphatase driven by […] sequences in tandem. This construct was co-transfected with 0.5 μg of either pAdTrack BMP4 or empty vector control using Lipofectamine 2000. Six hours post transfection, conditioned media were centrifuged, heat-treated at 65° C. (to inactivate endogenous alkaline phosphatase) for 30 min, and followed by chemiluminescence alkaline phosphatase assay according to the manufacturer's instructions.
In this study, NF-κB-SEAP construct expressing a secreted form of placental alkaline phosphatase driven by 4 κB sequences in tandem was co-transfected with either BMP4 vector or empty vector control by a Lipofectamine method used above (FIG. 5F).

MAEC = assay: Monocyte adhesion: THP-1 monocytes bound to mouse aortic endothelial cells; type: cell-based
Protocol: (§1) Endothelial cells: Mouse aortic endothelial cells (MAEC) were cultured and used at passages 4-8 as described (Cai, H., et al. (2002) J Bio Chem 107, 48311-48317). Human aortic endothelial cells (HAEC) purchased from Clonetics were cultured using EGM-2 bullet kit (Clonetics) and used at passages 4-8. Alternatively, endothelial cells obtained from the thoracic aortas of C57/BL6 control (MAE-wt) and p47^phox-null mice (MAE-p47^−/−) were isolated and cultured as described previously (Hwang, J. et al. (2003) J Biol Chem 278:47291-8), and used between passages 4-10.
(§2) Shear stress studies: Confluent endothelial monolayers grown in 100 mm tissue culture dishes were exposed to an arterial level of uni-directional LS (15 dyn/cm^2) in the growth medium by rotating a Teflon cone (0.5° cone angle) as described previously. To mimic unstable shear conditions in vivo, endothelial cells were exposed to OS with directional changes of flow at 1 Hz cycle (±5 dyn/cm^2) by rotating the cone back-and-forth using a stepping motor (Servo Motor) and a computer program (DC Motor Company, Atlanta, Ga.). In some studies, 5 dyn/cm^2 unidirectional LS was used for comparison to OS (±5 dyn/cm^2).
Monocyte Adhesion: Monocyte binding was determined under no-flow conditions using THP-1 monocytes (ATCC) by the method described by Chappel et al (Chappell, D. C., et al. (1998) Circ Res 82, 532-539). Briefly, THP-1 cells (5×10^5 cells/ml) were labeled with a fluorescent dye 2′,7′-bis(carboxyethyl)-5(6)-carboxyfluorescein-AM (BCECF, Molecular Probes) (1 mg/ml) in serum-free RPMI medium for 45 min at 37° C. Following exposure to shear stress or BMP treatments in the presence or absence of noggin or vehicle, the endothelial cells were washed in RPMI medium before adding BCECF-loaded THP-1 cells (1:1 ratio). After a 30 min incubation at 37° C. under no-flow conditions, unbound monocytes were removed by washing the endothelial dishes 5 times with Hank's PBS. Bound monocytes were quantified by either counting the cells under a fluorescent microscope or by measuring the fluorescent intensity of cell lysates by fluorescence spectrophotometry using a plate reader. […] Some studies were performed with MAEC pretreated with 5 μg/ml of mouse-ICAM1 antibody (YN1, Southern Biolechonology) (Kevil, C. G., et al. (2001) Am J Physiol Cell Physiol 281, C1442-1447).
In FIG. 7B, confluent MAE-wt cells were pre-incubated with cell-permeable PEG-catalase (Catalase, 100 U/ml for 18 hrs) or Tiron (10 μmol/L for 1 hr). Cells were then incubated with 20 ng/ml BMP4 or vehicle for additional 18 hrs. The treated cells in 7A and 7B were washed, and fluorescently-labeled THP-1 monocytes were added. Unbound THP-1 cells were washed after 30 min, and bound monocytes were counted with a fluorescence microscope using a 10× objective (5-10 different fields per dish). […] As a positive control, monocyte binding was determined using MAE-wt treated with TNF-α(100 U/ml for 2hrs).

MAE-wt cells = assay: H2O2 assay by oxidation of DCF-DA; type: cell-based, mouse; details: BMP4 18 hrs
Protocol: H2O2 assay: Cells grown in 6-well plates were treated with BMP4 or vehicle control for 18 hrs in the presence or absence of cell-permeable polyethylene glycol (PEG)-catalase (100 U/ml). Cells were then washed once with Hepes buffered saline solution (HBSS) followed by incubation with 7.5 μg/ml 2′, 7′-dichlorofluorescein diacetate (DCF-DA, Molecular Probes) in HBSS for 1 hr at 37 C° in the dark. Cells were washed with HBSS, incubated further for an additional 40 min in HBSS, and the DCF fluorescence intensities were measured in a Cytofluor Multi-Well plate reader (excitation at 475 nm and emission at 525 nm).
In addition, BMP4 stimulated production of H2O2 by 70% above control as determined by oxidation of DCF-DA (FIG. 10B). […] The cells were washed, incubated with DCF-DA, and the fluorescent intensities determined by fluorometry. Shown is a mean±SEM (n=3, p<0.05). In this assay, a redox cycling menadione (10 μM) was used as positive control (data not shown).

ICAM-1 = ICAM-1 surface expression by FACS analysis in HAEC; type: cell-based, human
Protocol: as §1, §2
Fluorescence activated cytometry sorting (FACS) analysis: Treated cells were dissociated into single cell suspensions using 0.25% trypsin-EDTA and resuspended in a FACS buffer (Hank's buffered solution containing 5% FBS). Aliquots of cell suspensions were incubated with ICAM-1 antibody (R&D Systems) for 20 min on ice, washed twice with FACS buffer, and incubated with secondary antibody (fluorescein-5-isothiocyanate- or phycoerytherin-conjugated, Chemicon) for 20 min on ice in the dark. Then samples were washed again, fixed in 1% paraformaldehyde and analyzed by FACS (Calibur, Becton-Dickinson) using CellQuest software. The fluorescence intensity of ICAM-1 and forward cell scattering of 30,000 cells were measured and the geometric means calculated from histograms were shown. In some studies, HAEC were transfected with either BMP4 cloned in a bi-cistronic pAdTrack CMV vector or an empty vector, both expressing green fluorescent protein (GFP), using Lipofectamine 2000. In these experiments, ICAM-1 expression was measured in the red phycoerytherin channel, while the green channel was used to monitor the […] expression-GFP expression was determined by FACS analysis and fluorescence microscopy (20-30% transfection efficiency). Because expression of GFP was similar among different treatment groups within the same experiment, it was unnecessary to normalize ICAM-1 expression data to GFP level. Human recombinant noggin was purchased from R&D Systems and used in all experiments at 50 ng/ml (Dale, L., and Jones, C. M. (1999) Bioessays 21, 751-760; Zimmerman, L. B., et al. (1996) Cell 86, 599-606; Brunei, L. J., et al. (1998) Science 280, 1455-1457).

Substance: BMP4
- NF-κB activity above controls (NF-κB): more than 3 fold
- monocyte adhesion above vehicle control (MAEC; MAE-wt cells, BMP4 20 ng/ml, 18 hrs): 5 to 6 fold
- effect on LS inhibition of monocyte adhesion (MAEC; MAEC sheared (LS) 24 hrs in medium supplemented with BMP4): inhibitory effect of LS on monocyte adhesion was lost
- monocyte binding, maximum activation over control (MAEC; MAEC treated with increasing concentrations of BMP4 for 24 hr (overnight)): 4 to 7 fold
- BMP4 concentration inducing maximum effect on monocyte adhesion (MAEC; MAEC, 24 hr): 50 ng/mL
- lowest BMP4 concentration inducing a statistically significant increase in monocyte adhesion (MAEC; MAEC, 24 hr): 0.1 ng/mL
- production of H2O2 above control (MAE-wt cells): 70%
- ICAM-1 expression above vector control cells (ICAM-1; HAEC transfected with BMP4 vector (Lipofectamine)): 3 to 4 fold
- ICAM-1 expression above empty vector control (ICAM-1; HAEC, BMP4 overexpression (transfection)): 84%
